Earlier results in patent US9320791B2, “Peptides from chaperonin 60.1” (PE[…], priority 2011, dated 2016).

Tested on: recruitment of eosinophils
Conditions: animal model of allergic airway inflammation; disclosed in WO2009/106819

In the case of “DGSVVVNKVSELPAGHGLNVNTLSYGDLAAD (listed as Mycobacterium tuberculosis) [Peptide 4, peptide derivable from MtCpn60.1 disclosed in WO2009/106819]”, the recruitment of eosinophils is listed as “significantly reduce”.
